# Experimental data published in ChEMBL document CHEMBL4616678, “Design, Synthesis, and Physicochemical and Pharmacological Profiling of 7-Hydroxy-5-oxopyrazolo[4,3-b]pyridine-6-carboxamide Derivatives with Antiosteoarthritic Activity In Vivo” (J Med Chem, 2020).
# Key:
# [1] = molecular target: T1, Cannabinoid receptor 2 (Homo sapiens, UniProt P34972); assay: Inverse agonist activity at recombinant human CB2R expressed in CHOK1 cells assessed as increase in NKH477-stimulated intracellular cAMP levels after 30 mins by chemiluminescent based cAMP Hunter assay; assay type: functional, cell-based, CHO-K1
# [2] = species on record: Homo sapiens; assay: Selectivity index, ratio of Ki for recombinant human CB1R expressed in HEK293 cell membranes to Ki for recombinant human CB2R expressed in HEK293 cell membranes; assay type: cell-based
# [3] = Kinetic solubility of the compound at pH 7.4 by HPLC-UV method; assay type: physicochemical; conditions: buffer, read-out: Kinetic_solubility
# [4] = molecular target: T1, Cannabinoid receptor 2; assay: Displacement of [3H]-CP-55,940 from recombinant human CB2R expressed in HEK293 cell membranes
# [5] = molecular target: Cannabinoid receptor 1 (Homo sapiens, UniProt P21554); assay: Displacement of [3H]-CP-55,940 from recombinant human CB1R expressed in HEK293 cell membranes
# [6] = Kinetic solubility of the compound at pH 1.0 by HPLC-UV method; assay type: physicochemical; conditions: buffer, read-out: Kinetic_solubility
# [7] = test system: NIH3T3; assay: Cytotoxicity against mouse NIH/3T3 assessed as reduction in cell viability after 1 to 14 days by Neutral red dye-based UV-visible spectrophotometer analysis; assay type: functional
# [8] = Ionization Constants, pKa of the compound by UV-vis spectra analysis; assay type: physicochemical
# [9] = Cytotoxicity against human NHAC-kn assessed as reduction in cell viability after 1 to 14 days by Neutral red dye-based UV-visible spectrophotometer analysis; assay type: functional
# [10] = Lipophilicity, log P of the compound by UV-vis spectra analysis; assay type: physicochemical; conditions: octanol/water
# [11] = molecular target: T1, Cannabinoid receptor 2; assay: Agonist activity at recombinant human CB2R expressed in CHOK1 cells assessed as inhibition of NKH477-stimulated intracellular cAMP levels after 30 mins by chemiluminescent detection based cAMP Hunter assay; assay type: functional, cell-based, CHO-K1
# Chain of Cannabinoid receptor 1 (P21554 whole entry): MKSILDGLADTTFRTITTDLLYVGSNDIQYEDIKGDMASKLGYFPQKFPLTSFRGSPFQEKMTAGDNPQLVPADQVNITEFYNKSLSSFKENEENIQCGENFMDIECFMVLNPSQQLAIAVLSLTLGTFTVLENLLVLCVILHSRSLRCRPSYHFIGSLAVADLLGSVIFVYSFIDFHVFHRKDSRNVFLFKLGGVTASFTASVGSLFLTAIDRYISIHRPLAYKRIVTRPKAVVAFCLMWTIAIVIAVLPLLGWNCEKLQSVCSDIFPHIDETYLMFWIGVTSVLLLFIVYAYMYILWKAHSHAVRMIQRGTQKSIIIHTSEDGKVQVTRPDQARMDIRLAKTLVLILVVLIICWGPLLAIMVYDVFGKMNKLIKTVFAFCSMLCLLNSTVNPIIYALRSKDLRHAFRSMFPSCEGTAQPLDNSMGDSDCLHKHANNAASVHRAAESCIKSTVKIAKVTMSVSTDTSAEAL
# T1 sequence (P34972 whole entry): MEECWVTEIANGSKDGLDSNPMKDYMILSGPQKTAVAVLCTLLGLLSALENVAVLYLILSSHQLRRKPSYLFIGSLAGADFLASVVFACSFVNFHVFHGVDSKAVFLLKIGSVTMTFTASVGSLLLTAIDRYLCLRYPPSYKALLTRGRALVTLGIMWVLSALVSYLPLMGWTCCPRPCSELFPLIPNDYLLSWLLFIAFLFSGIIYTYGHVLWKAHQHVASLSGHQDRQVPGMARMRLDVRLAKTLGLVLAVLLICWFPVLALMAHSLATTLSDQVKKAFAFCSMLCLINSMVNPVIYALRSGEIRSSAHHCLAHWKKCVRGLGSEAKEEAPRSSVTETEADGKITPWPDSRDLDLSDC
SMILES,EC50 [1] [nM],Ratio Ki [2],solubility kinetic [3] [µg/mL],Ki [4] [nM],Ki [5] [nM],solubility kinetic [6] [µg/mL],IC50 [7] [µM],pKa [8],IC50 [9] [µM],logP [10],EC50 [11] [nM]
COc1ccc(C(=O)c2c(C)n(CCN3CCOCC3)c3cc(I)ccc23)cc1,3150,,,,,,,,,,
CCCn1c(=O)c(C(=O)NC23CC4CC(CC(C4)C2)C3)c(O)c2nn(CCO)cc21,,6,3.9,159,> 1000,3.4,,,,,
CCCCn1c(=O)c(C(=O)NC23CC4CC(CC(C4)C2)C3)c(O)c2nn(C)cc21,370,,1.9,2.5,231,0.23,12.5,8.6,7.5,5.3,
CN1N=CC2C1C(O)=C(C(=O)NC13CC4CC(CC(O)(C4)C1)C3)C(=O)N2CCCCF (centres undefined),,,15.1,18.9,161,9.1,25,,7.5,,71.8
Cn1cc2c(n1)c(O)c(C(=O)NC13CC4CC(CC(O)(C4)C1)C3)c(=O)n2CCCCF,590,,37.6,6.2,> 1000,39.9,25,7.97,12.5,3.15,
CCCCCn1cc(C(=O)NC23CC4CC(CC(C4)C2)C3)c(=O)c2cc(C(C)C)ccc21,,,1,,,,,,,,
CCCC(C)(C)c1ccc2c(c1)OC(C)(C)[C@@H]1CC=C(C)C[C@@H]21,,,,,,,,,,,391
CCCCN1C(=O)C(C(=O)NC23CC4CC(CC(O)(C4)C2)C3)=C(O)C2C1C=NN2C (centres undefined),,,4.6,19.3,86.9,2.1,25,7.56,7.5,4.85,
CCCCCN1C(=O)C(C(=O)NC23CC4CC(CC(C4)C2)C3)=C(O)C2C1C=NN2C (centres undefined),,62,1.08,0.9,56,0.4,,,,,252
Cn1cc2c(n1)c(O)c(C(=O)NC13CC4CC(CC(C4)C1)C3)c(=O)n2CCCCO,1450,,3.2,14.3,> 1000,2.53,25,,12.5,,
